Target: bovine cardiac myofibrils (full-length cardiac myosin ATPase in the native sarcomere) (Bos taurus (Bovine), UniProt Q9BE39)
Test: Skinned bovine cardiac myofibril ATPase assay (PK/LDH-coupled)
Format: biochemical
Conditions: Ca2+ activating to 75% of maximal rate; for CDMF75 IC15: concentration giving 15% inhibition; for IC50: read-out: CDMF75 IC50
How it was run: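 Inhibition of steady-state ATPase read at 340 nm through a PK/LDH-coupled NADH system (0.5 mM NADH, 1.5 mM PEP). Detergent-skinned bovine cardiac myofibrils, 1 mg/mL, were tested at pH 6.8 in PIPES/MgCl2 with 50 μM ATP and calcium adjusted to give pCa50 or pCa75 activation.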

Chain of bovine cardiac myofibrils (full-length cardiac myosin ATPase in the native sarcomere) (Q9BE39 whole entry): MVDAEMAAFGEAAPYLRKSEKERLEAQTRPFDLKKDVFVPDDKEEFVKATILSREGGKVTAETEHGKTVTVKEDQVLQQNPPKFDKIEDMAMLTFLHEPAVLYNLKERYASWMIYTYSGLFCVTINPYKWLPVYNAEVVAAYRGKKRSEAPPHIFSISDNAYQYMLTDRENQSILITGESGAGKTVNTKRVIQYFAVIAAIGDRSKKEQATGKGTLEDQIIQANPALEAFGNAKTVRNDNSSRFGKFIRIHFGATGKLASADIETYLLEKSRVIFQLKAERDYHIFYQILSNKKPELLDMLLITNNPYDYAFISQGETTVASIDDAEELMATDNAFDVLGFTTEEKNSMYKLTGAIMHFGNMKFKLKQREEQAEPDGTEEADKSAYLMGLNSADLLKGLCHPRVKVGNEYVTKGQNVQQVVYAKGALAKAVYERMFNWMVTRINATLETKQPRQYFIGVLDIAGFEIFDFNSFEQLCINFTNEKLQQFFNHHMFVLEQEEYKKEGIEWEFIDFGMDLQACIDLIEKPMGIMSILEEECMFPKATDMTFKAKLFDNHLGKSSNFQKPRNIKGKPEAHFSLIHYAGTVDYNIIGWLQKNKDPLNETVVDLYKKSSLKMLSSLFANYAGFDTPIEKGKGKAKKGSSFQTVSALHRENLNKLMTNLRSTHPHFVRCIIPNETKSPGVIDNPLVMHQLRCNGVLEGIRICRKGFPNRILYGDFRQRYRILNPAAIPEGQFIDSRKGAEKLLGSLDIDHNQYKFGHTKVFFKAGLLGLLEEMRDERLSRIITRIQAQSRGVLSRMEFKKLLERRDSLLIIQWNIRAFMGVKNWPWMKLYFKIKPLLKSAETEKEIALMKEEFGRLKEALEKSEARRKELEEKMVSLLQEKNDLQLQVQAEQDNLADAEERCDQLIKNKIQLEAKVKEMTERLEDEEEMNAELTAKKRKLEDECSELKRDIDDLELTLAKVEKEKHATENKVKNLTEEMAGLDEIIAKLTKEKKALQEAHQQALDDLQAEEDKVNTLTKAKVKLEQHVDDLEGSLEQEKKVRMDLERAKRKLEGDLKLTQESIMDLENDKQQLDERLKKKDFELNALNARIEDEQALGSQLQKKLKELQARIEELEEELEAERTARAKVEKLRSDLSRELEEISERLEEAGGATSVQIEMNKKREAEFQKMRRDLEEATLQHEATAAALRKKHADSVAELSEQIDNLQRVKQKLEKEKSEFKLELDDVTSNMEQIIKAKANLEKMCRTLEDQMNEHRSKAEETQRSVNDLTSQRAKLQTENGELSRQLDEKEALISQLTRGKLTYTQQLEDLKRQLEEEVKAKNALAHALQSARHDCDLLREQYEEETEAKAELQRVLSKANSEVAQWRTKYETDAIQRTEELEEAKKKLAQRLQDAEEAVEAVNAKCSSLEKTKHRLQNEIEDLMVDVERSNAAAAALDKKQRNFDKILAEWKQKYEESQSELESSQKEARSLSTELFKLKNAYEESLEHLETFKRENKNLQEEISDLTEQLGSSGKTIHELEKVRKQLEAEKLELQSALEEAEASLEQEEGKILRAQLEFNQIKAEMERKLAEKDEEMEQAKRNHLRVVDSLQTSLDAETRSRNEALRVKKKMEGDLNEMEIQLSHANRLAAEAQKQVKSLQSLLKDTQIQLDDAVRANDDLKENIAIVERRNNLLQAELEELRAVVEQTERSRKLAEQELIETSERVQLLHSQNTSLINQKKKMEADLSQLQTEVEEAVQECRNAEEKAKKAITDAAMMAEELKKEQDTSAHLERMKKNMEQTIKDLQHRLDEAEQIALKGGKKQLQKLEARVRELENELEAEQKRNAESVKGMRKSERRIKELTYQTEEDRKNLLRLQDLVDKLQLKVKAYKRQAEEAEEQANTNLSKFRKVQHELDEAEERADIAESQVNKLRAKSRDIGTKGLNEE
Chain of bovine cardiac myofibrils (full-length cardiac myosin ATPase in the native sarcomere) (P85100 whole entry partner): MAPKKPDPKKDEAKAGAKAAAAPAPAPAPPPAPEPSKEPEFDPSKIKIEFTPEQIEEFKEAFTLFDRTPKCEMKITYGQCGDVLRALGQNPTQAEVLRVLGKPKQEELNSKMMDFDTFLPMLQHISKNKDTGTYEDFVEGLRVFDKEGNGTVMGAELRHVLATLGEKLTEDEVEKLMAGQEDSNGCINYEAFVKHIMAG
Chain of bovine cardiac myofibrils (full-length cardiac myosin ATPase in the native sarcomere) (Q3SZE5 whole entry partner): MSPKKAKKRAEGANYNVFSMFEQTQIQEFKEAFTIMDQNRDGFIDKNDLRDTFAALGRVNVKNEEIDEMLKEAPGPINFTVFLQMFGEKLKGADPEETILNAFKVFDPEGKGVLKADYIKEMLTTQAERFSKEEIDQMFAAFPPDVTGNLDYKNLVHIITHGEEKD

Structure (SMILES) | CDMF75 IC15 | IC50
CCc1cc(-c2ccc3c(c2)CC[C@H]3NC(=O)c2cn[nH]c2C)no1 [Compound 431, (R)—N-(5-(5-ethylisoxazol-3-yl)-2,3-dihydro-1H-inden-1-yl)-5-methyl-1H-pyrazole-4-carboxamide] | 300 nM | 900 nM
Cc1cc(-c2ccc3c(c2)CC[C@H]3NC(=O)c2cn[nH]c2C)no1 [Compound 432, (R)-5-methyl-N-(5-(5-methylisoxazol-3-yl)-2,3-dihydro-1H-inden-1-yl)-1H-pyrazole-4-carboxamide] | 800 nM | 2500 nM
Cc1nc(-c2ccc3c(c2)CC[C@H]3NC(=O)C(F)F)no1 [Compound 435, (R)-2,2-difluoro-N-(5-(5-methyl-1,2,4-oxadiazol-3-yl)-2,3-dihydro-1H-inden-1-yl)acetamide] | 2600 nM | 11300 nM
CCc1nc(-c2ccc3c(c2)CC[C@H]3NC(=O)C(F)F)no1 [Compound 436, (R)-N-(5-(5-ethyl-1,2,4-oxadiazol-3-yl)-2,3-dihydro-1H-inden-1-yl)-2,2-difluoroacetamide] | 600 nM | 2100 nM
COCc1nc(-c2ccc3c(c2)CC[C@H]3NC(=O)C(F)F)no1 [Compound 437, (R)-2,2-difluoro-N-(5-(5-(methoxymethyl)-1,2,4-oxadiazol-3-yl)-2,3-dihydro-1H-inden-1-yl)acetamide] | 8800 nM | 34400 nM
CC(C)c1nc(-c2ccc3c(c2)CC[C@H]3NC(=O)C(F)F)no1 [Compound 438, (R)-2,2-difluoro-N-(5-(5-isopropyl-1,2,4-oxadiazol-3-yl)-2,3-dihydro-1H-inden-1-yl)acetamide] | 3700 nM | 15800 nM
O=C(N[C@@H]1CCc2cc(-c3noc(C4CC4)n3)ccc21)C(F)F [Compound 439, (R)-N-(5-(5-cyclopropyl-1,2,4-oxadiazol-3-yl)-2,3-dihydro-1H-inden-1-yl)-2,2-difluoroacetamide] | 1100 nM | 4800 nM
O=C(N[C@@H]1CCc2cc(-c3noc(C4CCC4)n3)ccc21)C(F)F [Compound 440, (R)-N-(5-(5-cyclobutyl-1,2,4-oxadiazol-3-yl)-2,3-dihydro-1H-inden-1-yl)-2,2-difluoroacetamide] | 2700 nM | 10700 nM
O=C(N[C@@H]1COc2cc(-c3noc(C(F)F)n3)ccc21)C(F)F [Compound 441, (S)-N-(6-(5-(difluoromethyl)-1,2,4-oxadiazol-3-yl)-2,3-dihydrobenzofuran-3-yl)-2,2-difluoroacetamide] | 3400 nM | 13900 nM
[2H]C([2H])([2H])c1nc(-c2ccc3c(c2)CC[C@H]3NC(=O)C(F)F)no1 [Compound 442, (R)-2,2-difluoro-N-(5-(5-(methyl-d3)-1,2,4-oxadiazol-3-yl)-2,3-dihydro-1H-inden-1-yl)acetamide] | 2500 nM | 12600 nM
CCc1nc(-c2ccc3c(c2)OC[C@H]3NC(C)=O)no1 [Compound 443, (S)-N-(6-(5-ethyl-1,2,4-oxadiazol-3-yl)-2,3-dihydrobenzofuran-3-yl)acetamide] | 700 nM | 2600 nM
CC(=O)N[C@@H]1COc2cc(-c3noc(C(F)F)n3)ccc21 [Compound 444, (S)-N-(6-(5-(difluoromethyl)-1,2,4-oxadiazol-3-yl)-2,3-dihydrobenzofuran-3-yl)acetamide] | 1600 nM | 7900 nM
[2H]C([2H])([2H])C(=O)N[C@@H]1COc2cc(-c3noc(CC)n3)ccc21 [Compound 445, (S)-N-(6-(5-ethyl-1,2,4-oxadiazol-3-yl)-2,3-dihydrobenzofuran-3-yl)acetamide-2,2,2-d3] | 800 nM | 3000 nM
[2H]C([2H])([2H])C(=O)N[C@@H]1CCc2cc(-c3noc(CC)n3)ccc21 [Compound 446, (R)-N-(5-(5-ethyl-1,2,4-oxadiazol-3-yl)-2,3-dihydro-1H-inden-1-yl)acetamide-2,2,2-d3] | 700 nM | 2600 nM
[2H]C([2H])([2H])C(=O)N[C@@H]1COc2cc(-c3noc(C(F)F)n3)ccc21 [Compound 447, (S)-N-(6-(5-(difluoromethyl)-1,2,4-oxadiazol-3-yl)-2,3-dihydrobenzofuran-3-yl)acetamide-2,2,2-d3] | 1800 nM | 9300 nM
Cc1ncoc1C(=O)N[C@@H]1CCc2cc(-c3noc(C(F)F)n3)ccc21 [Compound 448, (R)-N-(5-(5-(difluoromethyl)-1,2,4-oxadiazol-3-yl)-2,3-dihydro-1H-inden-1-yl)-4-methyloxazole-5-carboxamide] | 300 nM | 900 nM
Cc1nc(-c2ccc3c(c2)CC[C@H]3NC(=O)c2ocnc2C)no1 [Compound 449, (R)-4-methyl-N-(5-(5-methyl-1,2,4-oxadiazol-3-yl)-2,3-dihydro-1H-inden-1-yl)oxazole-5-carboxamide] | 500 nM | 1500 nM
CC(=O)N[C@@H]1COc2cc(-c3noc(C)n3)ccc21 [Compound 450, (S)-N-(6-(5-methyl-1,2,4-oxadiazol-3-yl)-2,3-dihydrobenzofuran-3-yl)acetamide] | 3200 nM | 12400 nM
Cn1nccc1C(=O)N[C@@H]1CCc2cc(C#CC3CC3)ccc21 [Compound 451, (R)-N-(5-(cyclopropylethynyl)-2,3-dihydro-1H-inden-1-yl)-1-methyl-1H-pyrazole-5-carboxamide] | 2300 nM | 7700 nM
CC#Cc1ccc2c(c1)CC[C@H]2NC(=O)c1ccnn1C [Compound 452, (R)-1-methyl-N-(5-(prop-1-yn-1-yl)-2,3-dihydro-1H-inden-1-yl)-1H-pyrazole-5-carboxamide] | 4300 nM | 20300 nM
Cc1ncoc1C(=O)N[C@@H]1COc2cc(-c3noc(C(F)F)n3)ccc21 [Compound 453, (S)-N-(6-(5-(difluoromethyl)-1,2,4-oxadiazol-3-yl)-2,3-dihydrobenzofuran-3-yl)-4-methyloxazole-5-carboxamide] | 200 nM | 700 nM
Cc1nc(-c2ccc3c(c2)OC[C@H]3NC(=O)c2ocnc2C)no1 [Compound 454, (S)-4-methyl-N-(6-(5-methyl-1,2,4-oxadiazol-3-yl)-2,3-dihydrobenzofuran-3-yl)oxazole-5-carboxamide] | 500 nM | 1800 nM
CCc1nc(-c2ccc3c(c2)OC[C@H]3NC(=O)c2ocnc2C)no1 [Compound 455, (S)-N-(6-(5-ethyl-1,2,4-oxadiazol-3-yl)-2,3-dihydrobenzofuran-3-yl)-4-methyloxazole-5-carboxamide] | 200 nM | 700 nM
Cc1ncoc1C(=O)N[C@@H]1COc2cc(-c3noc(C4CC4)n3)ccc21 [Compound 456, (S)-N-(6-(5-cyclopropyl-1,2,4-oxadiazol-3-yl)-2,3-dihydrobenzofuran-3-yl)-4-methyloxazole-5-carboxamide] | 300 nM | 1100 nM
CC(=O)N[C@@H]1COc2cc(-c3noc(C4CC4)n3)ccc21 [Compound 457, (S)-N-(6-(5-cyclopropyl-1,2,4-oxadiazol-3-yl)-2,3-dihydrobenzofuran-3-yl)acetamide] | 1200 nM | 5300 nM

Reference: patent US12065436B2, “Cardiac sarcomere inhibitors” (Cytokinetics, Inc., priority 2018, dated 2024)
